This is an account of results in patent US11279676B2 (CHIA TAI TIANQING PHARMACEUTICAL GROUP CO., LTD., priority 2018, dated 2022).

Data set [1] in a line: Hygroscopicity test (Chinese Pharmacopoeia 2015, General Chapter 9103). It is filed as physicochemical. The settings on record: Guidelines for Drug Moisture Test, Chinese Pharmacopoeia 2015 Chapter 9103. As to the method:
Took the crystalline form A, crystalline form B, crystalline form D and crystalline form E of the compound of formula I to conduct test according to the “Guidelines for Drug Moisture Test” of the Chinese Pharmacopoeia 2015 Edition Fourth General Chapter 9103, and respectively, the weight gain of samples due to hygroscopicity was calculated.

Data set [2] is described as follows: Pharmacokinetic test in rats (relative bioavailability after gavage). To be noted: intragastric 20 mg/kg in gavage capsules; for Relative F: relative to crystalline form A (100). It is filed as in vivo. As to the method: The relative bioavailability of the compound of formula I in vivo was evaluated, after SD rats were gavaged with crystalline form A, crystalline form B, crystalline form D and crystalline form E of the compound of formula I.
Test samples: crystalline form A, crystalline form B, crystalline form D and crystalline form E of the compound of formula I filled in No. 9 gavage capsules separately
SD rats, weighing 180-200 g, after adaptation of 3-5 days, were randomly divided into 4 groups, with 4 rats in each group, and were respectively administered of crystalline form A, crystalline form B, crystalline form D and crystalline form E of the compound of formula I by intragastric administration at a dose of 20 mg/kg. The rats were fasted for 12 hours before administration and given food 4 hours after administration. Drinking water was free before and after the experiment and during the experiment.
After administration, the collection time points were 0.167 h (10 min), 0.5 h, 1 h, 2 h, 4 h, 6 h, 8 h, 10 h, and 24 h. About 0.3 mL of blood was collected from the orbital venous plexus and placed in a centrifuge tube containing EDTA-K2. Stored at 4° C. Centrifuged at a condition of 4° C., 4000 rpm, 10 min within 1 h, and stored at −20° C. to be tested.
Pipetted 50 μL of plasma sample to be tested, added 300 μL of acetonitrile solution containing internal standard, shook and mixed for 5 min, centrifuged at 13000 rpm for 10 min, took 30 μL of supernatant, added 150 μL of 50% acetonitrile aqueous solution, and pipetted 1 μL for LC/MS/MS analysis and determination.
Making use of liquid chromatography-tandem mass spectrometry (LC-MS/MS), with diazepam as an internal standard (IS), protein precipitation method was used to extract the analyte and internal standard from the plasma, and reverse phase chromatography column was adopted to separate compounds and internal standard. The analyte was quantified by electrospray ionization (ESI) mode of a tandem quadrupole mass spectrometer.

Where [3] appears, read: SD, rat, plasma, po, 20 mg/kg, mean of 4 rats.
[4] abbreviates: SD rats, plasma, mean of 4 rats, listed as Crystalline Form D of the Compound of Formula I.
Setting [5] is: SD rats, plasma, mean of 4 rats, listed as Crystalline Form B of the Compound of Formula I.
The mark [6] stands for this setting: SD rats, plasma, mean of 4 rats, listed as Crystalline Form E of the Compound of Formula I.

Read-outs that look alike come from different tables or passages of the source.

For orientation: AUC(0-inf) means the area under the concentration-time curve extrapolated to infinity. A lower AUC(0-inf) goes with low exposure. Broadly, the AUC(0-t) is exposure summed from dosing to a finite time, without extrapolation to infinity. Low readings indicate low exposure, high ones high exposure. By half-life is commonly meant the time needed for the level to fall by half in the phase considered. The low end stands for rapid decline, the high end for slow decline. One may read the Tmax as the time at which the peak concentration occurs. Consider `COc1cc2c(Oc3ccc(NC(=O)C4(C(=O)Nc5ccc(F)cc5)CC4)cc3F)ccnc2cc1OCC1(NC2CCCC2)CC1` [Example 1], for which the “Weight Gain due to Hygroscopicity” value in data set [1] is “Less than 0.2%”. For the same compound, the “Relative F” value in data set [2] (SD rats, listed as Crystalline Form A of the Compound of Formula I) is 100%. In data set [2] (setting [3]), this compound had an AUC(0-inf) of 4960 ng·h/mL, an area under the curve AUC(0-t) of 4700 ng·h/mL and a half-life of 4.93 h. Also, the MRT last in data set [2] (SD, rat, plasma, po, 20 mg/kg, plasma, mean of 4 rats, read-out: MRT(0-t)) stood at 8.51 h. Also, the time to peak (Tmax) in data set [2] (SD, rat, plasma, po, 20 mg/kg, plasma, mean of 4 rats, read-out: Tmax) came out at 6 h.
With `COc1cc2c(Oc3ccc(NC(=O)C4(C(=O)Nc5ccc(F)cc5)CC4)cc3F)ccnc2cc1OCC1(NC2CCCC2)CC1` [Example 4], in data set [2] (setting [4]), the “MRT(0-t)” value was determined as 8.73 h, the Tmax was 6.00 h and the t1/2 was found to be 5.20 h. For the same compound, the “Relative F” value in data set [2] (SD rats, listed as Crystalline Form D of the Compound of Formula I) stood at 72%.
`COc1cc2c(Oc3ccc(NC(=O)C4(C(=O)Nc5ccc(F)cc5)CC4)cc3F)ccnc2cc1OCC1(NC2CCCC2)CC1` [Example 2]: in data set [2] (setting [5]), the “MRT(0-t)” value was 6.72 h, the time of peak concentration (Tmax) is reported as 4.00 h and the t1/2 is reported as 5.30 h. In addition, the “Relative F” value in data set [2] (SD rats, listed as Crystalline Form B of the Compound of Formula I) was found to be 134%.
On to `COc1cc2c(Oc3ccc(NC(=O)C4(C(=O)Nc5ccc(F)cc5)CC4)cc3F)ccnc2cc1OCC1(NC2CCCC2)CC1` [Example 5], for which, in data set [2] (setting [6]), the “MRT(0-t)” value is recorded as 7.30 h, the Tmax was 4.50 h and the t1/2 is listed as 4.61 h. Also, the “Relative F” value in data set [2] (SD rats, listed as Crystalline Form E of the Compound of Formula I) worked out at 84%.
